Reference: US20140275010A1, “QUATERNARY SALTS” (priority 2013, published 2014)

How the values were obtained:
[1] = test system: reporter gene controlled by human VEGF promoter; details: read-out: IC50, inhibition of VEGF-promoted gene expression; cited from earlier work
U251 human glioma cells = U251 human glioma cells in vitro; read-out: IC50, inhibition of glioma cell proliferation; cited from earlier work
[2] = test system: WiDr cells: Colon cancer cells (wildtype SF3B1); assay: Cell viability assay (CellTiter-Glo), WiDr cells; type: cell-based; details: 72 hr
Protocol: (§1) Cells are seeded in 96-well plate with 2000 cells/100 uL/well and incubated overnight. Spent media was removed and fresh media containing compound (100 uL/well) with appropriate 9 concentrations are added. Each compound was treated in duplicate or triplicate manner at each concentration. DMSO concentration was adjusted to be 0.1%. Another plate was dedicated as Tz plate which was added 0.1% DMSO in media (100 uL/well) followed by CellTiter-Glo® (Promega corp., 50 uL/well) for ATP measurement as a surrogate of cell viability. Values from this plate are used as Tz. Compound treated plates are incubated for 72 hr at 37 C. Then, CellTiter-Glo® (50 uL/well) was added and ATP level was measured. Values from compound treated wells are used as Ti and DMSO treated wells are used as C.
(§2) Percentage growth inhibition was calculated as:
(§3) [(Ti−Tz)/(C−Tz)]×100 for concentrations for which Ti>/=Tz
(§4) [(Ti−Tz)/Tz]×100 for concentrations for which Ti<Tz.
(§5) *[time zero, (Tz), control growth (C), and test growth in the presence of drug with dose (Ti)] Growth inhibition of 50% (GI50) was calculated from [(Ti−Tz)/(C−Tz)]×100=50, which was the drug concentration resulting in a 50% reduction in the net protein increase in control cells during the drug incubation. The LC50 (concentration of drug resulting in a 50% reduction in the measured value at the end of the drug treatment as compared to that at the beginning) indicating a net loss of cells following treatment was calculated from [(Ti−Tz)/Tz]×100=−50.
(§6) Emax was defined as highest growth inhibition that particular compound achieved in tested dose range.

[3] = test system: Ad2 pre-mRNA splicing in HeLa nuclear extract; assay: In vitro splicing (biochemical) assay; details: in vitro splicing of Ad2 pre-mRNA, 30° C., 90 min, read-out: Biochem IC50
Protocol: In Vitro Splicing (Biochemical) Assay Protocol
Biotin-labeled pre-mRNA of an adenovirus type 2 construct with a deletion of intervening sequence (Ad2)^1 was prepared by in vitro transcription. The Ad2 construct containing Exon 1 (41 nt), Intron (231 nt), and Exon 2 (72 nt) was generated by gene synthesis and cloned into the EcoRI and XbaI sites of pGEM-3Z (Promega) by Genewiz. The plasmid was then linearized by XbaI digestion and purified. In vitro transcription and purification of transcribed pre-mRNA were performed using the MEGAScript T7 kit (Invitrogen) and MEGAclear kit (Invitrogen), respectively, following the manufacturer instructions. The ratio of biotin-16-UTP (Roche) to cold UTP was 1:13 to incorporate approximately two biotin molecules per spliced Ad2 mRNA.
In vitro splicing assay was performed at 30° C. in 25 μL reaction mixtures containing 95 μg HeLa nuclear extract (Promega), 47 nM Ad2 pre-mRNA, 25 U RNasin RNase inhibitor (Promega), 1×SP buffer (0.5 mM ATP, 20 mM creatine phosphate, 1.6 mM MgCl2), and compounds in DMSO (with 1% final concentration of DMSO). After 90 min of incubation, the reaction was stopped by addition of 18 μL of 5M NaCl, and the mixtures were incubated with 10 μL of M-280 streptavidin-coated magnetic beads (Invitrogen) for 30 min at room temperature to capture Ad2 pre- and spliced mRNA. The beads were washed twice with 100 uL buffer containing 10 mM Tris pH=7.5, 1 mM EDTA and 2M NaCl, and then incubated in RNA gel loading buffer containing 95% formamide at 70° C. for 10 min to elute the RNAs. Ad2 RNAs were resolved by 6% TBE-UREA gel, transferred to a nylon membrane, UV cross-linked, and probed with an IR-dye labeled streptavidin (LiCor) using LiCor detection. The amount of spliced RNA was quantified by measuring the band fluorescent intensity using LiCor software.

[4] = test system: Panc 05.04 cells: Pancreatic cancer cells (Q699H and K700E mutations in SF3B1); assay: Cell viability assay (CellTiter-Glo), Panc 05.04 cells; type: cell-based; details: 72 hr; for Gl50 Panc 05.04: Panc 05.04 pancreatic cancer cells, SF3B1 Q699H and K700E, CellTiter-Glo; for Emax Panc 05.04: highest growth inhibition achieved in tested dose range
Protocol: as §1, §2, §3, §4, §5, §6

[5] = test system: WiDr-R cells: Colon cancer cells (chemically-induced SF3B1 mutant which is resistant to E7107 (R1074H mutation)); assay: Cell viability assay (CellTiter-Glo), WiDr-R cells; type: cell-based; details: 72 hr
Protocol: as §1, §2, §3, §4, §5, §6

IC50 [3] [µM]	SMILES	IC50 [1] [µM]	IC50 (U251 human glioma cells) [µM]	Gl50 WiDr [2] [nM]	Gl50 Panc 05.04 [4] [nM]	Emax Panc 05.04 [4] [%]	Gl50 WiDr-R [5] [nM]
	CCC(O)C(C)C1OC1CC(C)/C=C/C=C(\C)C1OC(=O)CC(O)CCC(C)(O)C(OC(C)=O)/C=C/C1C (centres unmarked) [Pladienolide B]	0.0018	0.0035				
0.01	CC[C@H](O)[C@@H](C)[C@H]1O[C@@H]1C[C@H](C)/C=C/C=C(\C)[C@H]1OC(=O)C[C@H](O)CC[C@@](C)(O)[C@@H](OC(=O)N2CC[N+](C)(C3CCCCCC3)CC2)/C=C/[C@@H]1C.[I-] [Cpd. 1]			1.1	0.6	−61	368
0.06	CC[C@H](O)[C@@H](C)[C@H]1O[C@@H]1C[C@H](C)/C=C/C=C(\C)[C@H]1OC(=O)C[C@H](O)CC[C@@](C)(O)[C@@H](OC(=O)N2CC[N+](C)(C(C)C)CC2)/C=C/[C@@H]1C.[I-] [Cpd. 3]			2.8	16.2	−66	>100

SMILES	IC50 [3] [µM]	IC50 [1] [µM]	IC50 (U251 human glioma cells) [µM]	Gl50 WiDr [2] [nM]	Gl50 Panc 05.04 [4] [nM]	Emax Panc 05.04 [4] [%]	Gl50 WiDr-R [5] [nM]
CC[C@H](O)[C@@H](C)[C@H]1O[C@@H]1C[C@@](C)(O)/C=C/C=C(\C)[C@H]1OC(=O)C[C@H](O)CC[C@@](C)(O)[C@@H](OC(=O)N2CC[N+](C)(C3CCCCCC3)CC2)/C=C/[C@@H]1C.[I-] [Cpd. 17]	< 0.1			64.5	607.8	−47	>1000
